According to patent publication US9067923B2, “Substituted quinoxalines” (Kyowa Hakko Kirin Co., Ltd., priority 2011, dated 2015):

These compounds were tested on production of kynurenine in human gastric cancer cell line KATO-III (assay: Inhibitory activity on the production of kynurenine (IFN-γ-treated KATO-III cells)). Settings: 10 μmol/L test compound, KATO-III cells treated with IFN-γ, 96 hours.
Format: cell-based
Procedure: This assay was performed by a modification of the method described in J. Biol. Chem., vol. 263, pp. 2041-2048 ([…]). For culture of the human gastric cancer cell line […], RPMI 1640 (GIBCO, 11875) supplemented with 10 vol % FBS (GIBCO, 10091-148, lot. 665285) was used. One μL of a test substance in a DMSO solution was diluted with 199 μL of the culture medium and placed in wells of a 384-well plate (10 μL/well). Next, IFN-γ (Sigma, I-3265) was added to a fresh culture medium to a concentration of 31.25 ng/mL, and KATO-III cells were suspended at 50,000 cells/mL in the culture medium. Forty μL of the suspension was added to each well (2,000 cells/well) and cultured under 5% CO2 at 37° C. for 96 hours. The final concentration of DMSO was limited to 0.1 vol % or less so that DMSO itself may not affect the kynurenine concentration measured in this assay. After the culture, 10 μL of a 30 w/v % aqueous trichloroacetic acid solution was added to each well, and incubation was performed at 65° C. for 30 minutes. The plate was centrifruged at 2,500×g for 5 minutes and 15 μL of the supernatant in each well was transferred into another 384-well plate. To the transferred supernatant, 15 μL of a 2 w/v % solution of p-dimethylaminobenzaldehyde in acetic acid was added, incubation was performed at 65° C. for 20 minutes and the absorbance was measured at 480 nm.
Sample: the absorbance value of the well to which DMSO solution containing a test substance was added and in which the cells were treated with IFN-γ.
Blank: the absorbance value of the well to which DMSO not containing a test substance was added and in which the cells were treated with IFN-γ.
Control: the absorbance value of the well to which DMSO not containing a test substance was added and in which the cells were not treated with IFN-γ.
The inhibition % of each test compound was calculated by formula A1.
In this assay, the expression of IDO in KATO-III cells is induced by IFN-γ treatment, and kynurenine in the culture medium is quantified. The kynurenine concentration in a culture medium is known to increase in proportion to the enzymatic activity of intracellular IDO (for example, J. Biol. Chem., vol. 263, pp. 2041-2048 (1988)). […] The production of kynurenine is known to be inhibited by IDO inhibitors (for example, J. Clin. Invest., vol. 117, No. 5, pp. 1147-1154 ([…])), and thus it is speculated that compounds (I) also have an inhibitory effect on IDO.
CCCS(=O)(=O)Nc1nc2ccccc2nc1OC(C1CCN(c2ccccn2)CC1)C(F)(F)F (centres unmarked) [Compound 20, N-(3-(2,2,2-trifluoro-1-(1-(pyridin-2-yl)piperidin-4-yl)ethoxy)quinoxalin-2-yl)propane-1-sulfonamide] was tested, and the inhibition at 10 µM was ≥ 80%. For CCCS(=O)(=O)Nc1nc2ccccc2nc1OC(C1CCN(c2nccs2)CC1)C(F)(F)F (centres unmarked) [Compound 18, N-(3-(2,2,2-trifluoro-1-(1-(thiazol-2-yl)piperidin-4-yl)ethoxy)quinoxalin-2-yl)propane-1-sulfonamide], the inhibition at 10 µM was ≥ 80%. With CCCS(=O)(=O)Nc1nc2ccccc2nc1OC(C1CCN(c2ccc(C(N)=O)cn2)CC1)C(F)(F)F (centres unmarked) [Compound 19, 6-(4-(2,2,2-trifluoro-1-(3-(propylsulfonamido)quinoxalin-2-yloxy)ethyl)piperidin-1-yl)nicotinamide] the inhibition at 10 µM was ≥ 80%. In the case of CCCS(=O)(=O)Nc1nc2ccccc2nc1OC(C1CCN(c2cncnc2)CC1)C(F)(F)F (centres unmarked) [Compound 14, N-(3-(2,2,2-trifluoro-1-(1-(pyrimidin-5-yl)piperidin-4-yl)ethoxy)quinoxalin-2-yl)propane-1-sulfonamide], the inhibition at 10 µM is reported as ≥ 80%. For CCCS(=O)(=O)Nc1nc2ccccc2nc1OC(C1CCN(c2cccnc2)CC1)C(F)(F)F (centres unmarked) [Compound 21, N-(3-(2,2,2-trifluoro-1-(1-(pyridin-3-yl)piperidin-4-yl)ethoxy)quinoxalin-2-yl)propane-1-sulfonamide], the inhibition at 10 µM was ≥ 80%. In the case of CCCS(=O)(=O)Nc1nc2ccccc2nc1OC(C1CCN(c2cc(C#N)ccn2)CC1)C(F)(F)F (centres unmarked) [Compound 6, N-(3-(1-(1-(4-cyanopyridin-2-yl)piperidin-4-yl)-2,2,2-trifluoroethoxy)quinoxalin-2-yl)propane-1-sulfonamide], the inhibition at 10 µM is reported as ≥ 80%. CCCS(=O)(=O)Nc1nc2ccccc2nc1OC(C1CCN(c2cc(C(=O)N(C)C)ccn2)CC1)C(F)(F)F (centres unmarked) [Compound 1, N,N-dimethyl-2-(4-(2,2,2-trifluoro-1-(3-(propylsulfonamido)quinoxalin-2-yloxy)ethyl)piperidin-1-yl)isonicotinamide] was tested, and the inhibition at 10 µM was ≥ 80%. With CCCS(=O)(=O)Nc1nc2ccccc2nc1OC(C1CCN(c2ncccc2C(N)=O)CC1)C(F)(F)F (centres unmarked) [Compound 10, 2-(4-(2,2,2-trifluoro-1-(3-(propylsulfonamido)quinoxalin-2-yloxy)ethyl)piperidin-1-yl)nicotinamide] the inhibition at 10 µM was ≥ 80%. With CCCS(=O)(=O)Nc1nc2ccccc2nc1OC(C1CCN(c2ccc(C(N)=O)nc2)CC1)C(F)(F)F (centres unmarked) [Compound 5, 5-(4-(2,2,2-trifluoro-1-(3-(propylsulfonamido)quinoxalin-2-yloxy)ethyl)piperidin-1-yl)picolinamide] the inhibition at 10 µM was ≥ 80%. With CCCS(=O)(=O)Nc1nc2ccccc2nc1OC(C1CCN(c2cccc(C(=O)N(C)C)n2)CC1)C(F)(F)F (centres unmarked) [Compound 3, N,N-dimethyl-6-(4-(2,2,2-trifluoro-1-(3-(propylsulfonamido)quinoxalin-2-yloxy)ethyl)piperidin-1-yl)picolinamide] the inhibition at 10 µM was ≥ 80%. With CCCS(=O)(=O)Nc1nc2ccccc2nc1OC(C1CCN(c2ccncc2C#N)CC1)C(F)(F)F (centres unmarked) [Compound 17, N-(3-(1-(1-(3-cyanopyridin-4-yl)piperidin-4-yl)-2,2,2-trifluoroethoxy)quinoxalin-2-yl)propane-1-sulfonamide] the inhibition at 10 µM was ≥ 80%. For CCCS(=O)(=O)Nc1nc2ccccc2nc1O[C@H](c1cnc(C(C)=O)s1)C(F)(F)F [Compound 32, (S)-N-(3-(1-(2-acetylthiazol-5-yl)-2,2,2-trifluoroethoxy)quinoxalin-2-yl)propane-1-sulfonamide], the inhibition at 10 µM was ≥ 80%. For COCCS(=O)(=O)Nc1nc2ccccc2nc1OC(c1ccc(-c2noc(C3CC3)n2)nc1)C(F)(F)F (centres unmarked) [Compound 23, N-(3-(1-(6-(5-cyclopropyl-1,2,4-oxadiazol-3-yl)pyridin-3-yl)-2,2,2-trifluoroethoxy)quinoxalin-2-yl)-2-methoxyethanesulfonamide], the inhibition at 10 µM was ≥ 80%. In the case of CCCS(=O)(=O)Nc1nc2ccccc2nc1OC(C1CCN(c2cnccn2)CC1)C(F)(F)F (centres unmarked) [Compound 13, N-(3-(2,2,2-trifluoro-1-(1-(pyrazin-2-yl)piperidin-4-yl)ethoxy)quinoxalin-2-yl)propane-1-sulfonamide], the inhibition at 10 µM is reported as ≥ 80%. In the case of CCCS(=O)(=O)Nc1nc2ccccc2nc1O[C@H](C1CCN(c2ccc(C(N)=O)nc2)CC1)C(F)(F)F [Compound 34, (R)-5-(4-(2,2,2-trifluoro-1-(3-(propylsulfonamido)quinoxalin-2-yloxy)ethyl)piperidin-1-yl)picolinamide], the inhibition at 10 µM is reported as ≥ 80%. In the case of CCCS(=O)(=O)Nc1nc2ccccc2nc1OC(C1CCN(c2ncccc2C(=O)N(C)C)CC1)C(F)(F)F (centres unmarked) [Compound 2, N,N-dimethyl-2-(4-(2,2,2-trifluoro-1-(3-(propylsulfonamido)quinoxalin-2-yloxy)ethyl)piperidin-1-yl)nicotinamide], the inhibition at 10 µM is reported as ≥ 80%. CCCS(=O)(=O)Nc1nc2ccccc2nc1OC(C1CCN(c2ccc(C(=O)N(C)C)cn2)CC1)C(F)(F)F (centres unmarked) [Compound 8, N,N-dimethyl-6-(4-(2,2,2-trifluoro-1-(3-(propylsulfonamido)quinoxalin-2-yloxy)ethyl)piperidin-1-yl)nicotinamide] was tested, and the inhibition at 10 µM was ≥ 80%. For CCCS(=O)(=O)Nc1nc2ccccc2nc1OC(c1ccc(-c2noc(COC)n2)nc1)C(F)(F)F (centres unmarked) [Compound 26, N-(3-(2,2,2-trifluoro-1-(6-(5-(methoxymethyl)-1,2,4-oxadiazol-3-yl)pyridin-3-yl)ethoxy)quinoxalin-2-yl)propane-1-sulfonamide], the inhibition at 10 µM was ≥ 80%. CCCS(=O)(=O)Nc1nc2ccccc2nc1OC(C1CCN(c2ncccc2C#N)CC1)C(F)(F)F (centres unmarked) [Compound 9, N-(3-(1-(1-(3-cyanopyridin-2-yl)piperidin-4-yl)-2,2,2-trifluoroethoxy)quinoxalin-2-yl)propane-1-sulfonamide] was tested, and the inhibition at 10 µM was ≥ 80%. CCCS(=O)(=O)Nc1nc2ccccc2nc1OC(C1CCN(c2ccnc(C#N)c2)CC1)C(F)(F)F (centres unmarked) [Compound 16, N-(3-(1-(1-(2-cyanopyridin-4-yl)piperidin-4-yl)-2,2,2-trifluoroethoxy)quinoxalin-2-yl)propane-1-sulfonamide] was tested, and the inhibition at 10 µM was ≥ 80%. With CCCS(=O)(=O)Nc1nc2ccccc2nc1OC(C1CCN(c2nnnn2C)CC1)C(F)(F)F (centres unmarked) [Compound 12, N-(3-(2,2,2-trifluoro-1-(1-(1-methyl-1H-tetrazol-5-yl)piperidin-4-yl)ethoxy)quinoxalin-2-yl)propane-1-sulfonamide] the inhibition at 10 µM was ≥ 80%. In the case of CCCS(=O)(=O)Nc1nc2ccccc2nc1OC(C1CCN(c2cncc(C#N)c2)CC1)C(F)(F)F (centres unmarked) [Compound 7, N-(3-(1-(1-(5-cyanopyridin-3-yl)piperidin-4-yl)-2,2,2-trifluoroethoxy)quinoxalin-2-yl)propane-1-sulfonamide], the inhibition at 10 µM is reported as ≥ 80%. For CCCS(=O)(=O)Nc1nc2ccccc2nc1OC(C1CCN(c2ccc(C#N)cn2)CC1)C(F)(F)F (centres unmarked) [Compound 15, N-(3-(1-(1-(5-cyanopyridin-2-yl)piperidin-4-yl)-2,2,2-trifluoroethoxy)quinoxalin-2-yl)propane-1-sulfonamide], the inhibition at 10 µM was ≥ 80%.
